Assay results published in US20170073337A1, “DIHYDROTHIAZINE AND DIHYDROOXAZINE DERIVATIVES HAVING BACE1 INHIBITORY ACTIVITY” (Shionogi & Co., Ltd., priority 2014, published 2017).

tested on: Aβ production in neuroblastoma SH-SY5Y cells (SH/APPwt); test: β-amyloid (Aβ) production inhibitory effect in cell: 384-well; type: cell-based; details: Homo sapiens, Assay format 384-well
Summary of the method: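 Aβ1-40 secreted by SH/APPwt neuroblastoma cells was quantified by HTRF (overnight, 4 °C, light-protected; emission 620/665 nm). Cells were exposed to compound from seeding for 21 h at 1% final DMSO.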

In order of rising IC50:
1. C[C@H]1SC(N)=N[C@](C)(c2cc(NC(=O)c3coc(CF)n3)ccc2F)[C@H]1F [Compound I-49]  0.025 nM
2. C[C@]1(c2cc(NC(=O)c3ccc(C#N)cn3)ccc2F)N=C(N)SCC12CC(F)(F)C2 [Compound I-59]  0.058 nM
3. CC[C@H]1SC(N)=N[C@](C)(c2cc(NC(=O)c3cnc(OCF)cn3)ccc2F)[C@H]1F [Compound I-66]  0.13 nM
4. CO[C@H]1[C@@H](C)SC(N)=N[C@]1(C)c1cc(NC(=O)c2ccc(C#N)cn2)ccc1F [Compound I-88]  0.13 nM
5. C[C@H]1SC(N)=N[C@](C)(c2cc(NC(=O)c3ncc(C#N)cc3Cl)ccc2F)[C@H]1F [Compound I-64]  0.22 nM
6. C[C@H]1SC(N)=N[C@](C)(c2cc(NC(=O)c3cnc(OCF)cn3)ccc2F)C12CC(F)(F)C2 [Compound I-62]  0.25 nM
7. COC[C@H]1SC(N)=N[C@](C)(c2cc(NC(=O)c3cnc(OCF)cn3)ccc2F)[C@H]1F [Compound I-91]  0.25 nM
8. COc1cnc(C(=O)Nc2ccc(F)c([C@@]3(C)N=C(N)SCC34CC(F)(F)C4)c2)cn1 [Compound I-55]  0.3 nM
9. COc1ccc(C(=O)Nc2ccc(F)c([C@@]3(C)N=C(N)S[C@H](C)[C@@H]3F)c2)nc1 [Compound I-50]  0.39 nM
10. C[C@H]1SC(N)=N[C@](C)(c2cc(NC(=O)c3ccc(OCF)cn3)ccc2F)[C@H]1F [Compound I-51]  0.41 nM
11. C[C@]1(c2cc(NC(=O)c3cnc(OCF)cn3)ccc2F)N=C(N)S[C@H](CO)[C@@H]1F [Compound I-109]  0.45 nM
12. C[C@H]1SC(N)=N[C@](C)(c2cccc(NC(=O)c3cnc(OCF)cn3)c2)[C@H]1F [Compound I-104]  0.49 nM
13. COc1cnc(C(=O)Nc2ccc(F)c([C@@]3(C)N=C(N)S[C@H](C)[C@@H]3OC)c2)cn1 [Compound I-90]  0.51 nM
14. COc1cnc(C(=O)Nc2ccc(F)c([C@@]3(C)N=C(N)O[C@H]([C@@H](C)F)[C@@H]3F)c2)cn1 [Compound I-71]  0.54 nM
15. CC[C@H]1SC(N)=N[C@](C)(c2cc(NC(=O)c3ccc(OCF)cn3)ccc2F)[C@H]1F [Compound I-67]  0.56 nM
16. CO[C@H]1[C@@H](C)SC(N)=N[C@]1(C)c1cc(NC(=O)c2cnc(OCF)cn2)ccc1F [Compound I-87]  0.66 nM
17. C[C@H]1SC(N)=N[C@](C)(c2cc(NC(=O)c3ncc(OCC(F)(F)F)cn3)ccc2F)[C@H]1F [Compound I-53]  0.89 nM
18. C[C@H]1SC(N)=N[C@](C)(c2cc(NC(=O)c3cnc(C(F)F)cn3)ccc2F)[C@H]1F [Compound I-65]  1.1 nM
19. CO[C@H]1[C@@H](C)SC(N)=N[C@]1(C)c1cc(NC(=O)c2ccc(F)cn2)ccc1F [Compound I-89]  1.5 nM
20. CC#CCOc1cnc(C(=O)Nc2ccc(F)c([C@@]3(C)N=C(N)O[C@H](C(C)(F)F)[C@@H]3F)c2)cn1 [Compound I-76]  1.6 nM
21. C[C@]1(c2cc(NC(=O)c3ccc(C#N)cn3)ccc2F)N=C(N)O[C@H](C2(F)CC2)[C@@H]1F [Compound I-96]  1.8 nM
22. CC[C@H]1SC(N)=N[C@](C)(c2cc(NC(=O)c3ccc(F)cn3)ccc2F)[C@H]1F [Compound I-70]  2 nM
23. COc1cnc(C(=O)Nc2cccc([C@@]3(C)N=C(N)S[C@H](C)[C@@H]3F)c2)cn1 [Compound I-103]  2.1 nM
24. COc1cnc(C(=O)Nc2ccc(F)c([C@@]3(C)N=C(N)O[C@H](C(F)F)[C@@H]3C)c2)cn1 [Compound I-86]  2.21 nM
25. C[C@H]1SC(N)=N[C@](C)(c2cccc(NC(=O)c3cnc(C(F)F)cn3)c2)[C@H]1F [Compound I-106]  2.6 nM
26. COCC(F)(F)[C@H]1OC(N)=N[C@](C)(c2cc(NC(=O)c3cnc(OCF)cn3)ccc2F)[C@H]1F [Compound I-79]  4.5 nM
27. C[C@H]1SC(N)=N[C@](C)(c2cc(NC(=O)c3cnc(OCC4CC4)cn3)ccc2F)[C@H]1F [Compound I-85]  4.8 nM
28. C[C@H]1SC(N)=N[C@](C)(c2cc(NC(=O)c3ccc(F)cn3)ccc2F)C12CC(F)(F)C2 [Compound I-63]  5.4 nM
29. CC(F)(F)[C@H]1OC(N)=N[C@](C)(c2cc(NC(=O)c3cnc(OCC(F)(F)F)cn3)ccc2F)[C@H]1F [Compound I-75]  8.3 nM
30. COc1ccc(C(=O)Nc2ccc(F)c([C@@]3(C)N=C(N)S[C@H](C)[C@@H]3F)c2)nn1 [Compound I-108]  8.8 nM
31. C[C@]1(c2cc(NC(=O)c3ccc(OCF)cn3)ccc2F)N=C(N)O[C@H](C2(F)CC2)[C@@H]1F [Compound I-101]  11 nM
32. COc1cnc(C(=O)Nc2ccc(F)c([C@@]3(C)N=C(N)O[C@H](C(F)(F)C4CC4)[C@@H]3F)c2)cn1 [Compound I-83]  14 nM
33. C[C@]1(c2cc(NC(=O)c3cnc(OCF)cn3)ccc2F)N=C(N)O[C@H](C(F)(F)C2CC2)[C@@H]1F [Compound I-82]  17 nM
34. C[C@]1(c2cc(NC(=O)c3ccc(C#N)cn3)ccc2F)N=C(N)O[C@H](C(F)(F)C2CC2)[C@@H]1F [Compound I-81]  21 nM
35. CC(F)(F)[C@H]1OC(N)=N[C@](C)(c2cc(NC(=O)c3cnc(OCC(F)F)cn3)ccc2F)[C@H]1F [Compound I-77]  79 nM

target: T1, Recombinant human BACE1 (Homo sapiens, UniProt P56817); test: Assay of BACE1 inhibitory activity: 96-well; type: biochemical; details: Assay format 96-well
T1 construct: purchased R&D Systems
Protocol: 48.5 μL of substrate peptide solution (Biotin-XSEVNLDAEFRHDSGC-Eu: X=ε-amino-n-capronic acid. Eu=Europium cryplate) was added to each well of 96-hole half-area plate (a black plate: Costar), and after addition of 0.5 μl of the compound of the present invention (DMSO solution) and 1 μl of Recombinant human BACE1(R&D Systems), the reaction mixture was incubated at 30° C. for 3.5 hours. The substrate peptide was synthesized by reacting Cryptate TBPCOOH mono SMP (CIS bio international) with Biotin-XSEVNLDAEFRHDSGC (Peptide Institute, Inc.).
After the incubation for reaction, 50 μl of 8.0 μg/ml Streptavidin-XL665 (CIS bio international) dissolved in phosphate buffer (150 mmol/L […]—KH2PO4, pH 7.0, 0.008% Triton X-100, 0.8 mol/L KF) was added to each well and left stand at 30° C. for 45 minutes.

T1 sequence (P56817 46-501): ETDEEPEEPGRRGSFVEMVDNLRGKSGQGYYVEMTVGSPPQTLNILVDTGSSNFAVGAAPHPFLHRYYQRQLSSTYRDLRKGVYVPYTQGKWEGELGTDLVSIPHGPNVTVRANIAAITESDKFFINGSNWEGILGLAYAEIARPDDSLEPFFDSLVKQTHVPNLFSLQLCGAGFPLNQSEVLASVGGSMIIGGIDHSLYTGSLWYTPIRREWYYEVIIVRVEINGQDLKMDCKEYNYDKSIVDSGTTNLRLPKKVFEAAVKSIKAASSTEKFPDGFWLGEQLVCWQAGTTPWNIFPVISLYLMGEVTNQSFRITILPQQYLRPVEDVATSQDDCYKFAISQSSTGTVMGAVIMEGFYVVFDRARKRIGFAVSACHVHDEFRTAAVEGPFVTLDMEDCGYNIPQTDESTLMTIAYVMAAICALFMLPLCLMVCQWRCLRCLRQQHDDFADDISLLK

In order of rising IC50:
1. CO[C@H]1[C@@H](CF)OC(N)=N[C@]1(C)c1cc(NC(=O)c2ccc(C#N)cn2)ccc1Cl [Compound I-18]  18 nM
2. C[C@H]1[C@@H](C(F)F)OC(N)=N[C@]1(C)c1cc(NC(=O)c2ccc(C#N)cn2)ccc1F [Compound I-31]  22.3 nM
3. C[C@@H]1[C@@H](C(F)(F)F)OC(N)=N[C@]1(C)c1cc(NC(=O)c2ccc(C#N)cn2)ccc1F [Compound I-27]  40.5 nM
4. Cc1nc(C(=O)Nc2ccc(F)c([C@@]3(C)N=C(N)O[C@H](C(F)(F)F)[C@@H]3C)c2)co1 [Compound I-32]  43.6 nM
5. C[C@H]1[C@@H](C(F)F)OC(N)=N[C@]1(C)c1cc(NC(=O)c2cnc(OCF)cn2)ccc1F [Compound I-33]  49.2 nM
6. COc1cnc(C(=O)Nc2ccc(F)c([C@@]3(C)N=C(N)O[C@H]([C@H](C)F)[C@@H]3F)c2)cn1 [Compound I-17]  59.7 nM
7. C[C@]1(c2cc(NC(=O)c3cnc(OCF)cn3)ccc2F)N=C(N)OCC12CC(F)(F)C2 [Compound I-44]  69.6 nM
8. CO[C@H]1[C@@H](CF)OC(N)=N[C@]1(C)c1cc(NC(=O)c2ccc(F)cn2)ccc1Cl [Compound I-20]  72.7 nM
9. C[C@]1(c2cc(NC(=O)c3ccc(F)cn3)ccc2F)N=C(N)O[C@H](CF)[C@@H]1OCC(F)(F)F [Compound I-11]  102 nM
10. C[C@]1(c2cc(NC(=O)c3ccc(F)cn3)ccc2F)N=C(N)OCC12CC(F)(F)C2 [Compound I-45]  134 nM
11. CO[C@H]1[C@@H](CF)OC(N)=N[C@]1(C)c1cc(NC(=O)c2ccc(F)cn2)ccc1F [Compound I-25]  156 nM
12. C[C@H]1[C@H](C(F)(F)F)OC(N)=N[C@]1(C)c1cc(NC(=O)c2ccc(C#N)cn2)ccc1F [Compound I-29]  1560 nM
